# Reference: ChEMBL document CHEMBL1201862, “PubChem BioAssay data set” (2004)
#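 Assay format: 96-well plates, 48-hour exposure. GI50 = concentration required for 50% inhibition of growth.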 Active and inactive are the calls of the source. Rule as the data show it: active = GI50 up to about 1.1 µM and inactive = higher.
# Tests used:
# Test in all cases: NCI-60 cell line screen, 48 h
# [1] = test system: 786-0
# [2] = test system: BT-549
# [3] = test system: LOX IMVI
# [4] = test system: M14
# [5] = test system: MDA-N
# [6] = test system: NCI-H23
# [7] = test system: OVCAR-3
# [8] = test system: OVCAR-5
# [9] = test system: OVCAR-8
# [10] = test system: SF-268
# [11] = test system: SF-539
# [12] = test system: SNB-75
# [13] = test system: T47D
# [14] = test system: UACC-257
# [15] = test system: UACC-62
# [16] = test system: KM12
# [17] = test system: SNB-19
# [18] = test system: TK-10
# [19] = test system: HL-60
SMILES,GI50 [1],GI50 [2],GI50 [3],GI50 [4],GI50 [5],GI50 [6],GI50 [7],GI50 [8],GI50 [9],GI50 [10],GI50 [11],GI50 [12],GI50 [13],GI50 [14],GI50 [15],GI50 [16],GI50 [17],GI50 [18],GI50 [19]
CCCSc1ccc2[nH]c(/N=C/c3ccccc3)cc2c1,19.1 µM (inactive),33.7 µM (inactive),17.4 µM (inactive),25.5 µM (inactive),7.67 µM (inactive),41.7 µM (inactive),22.1 µM (inactive),40.1 µM (inactive),23.3 µM (inactive),19.7 µM (inactive),20.5 µM (inactive),20.5 µM (inactive),48 µM (inactive),19.7 µM (inactive),17.4 µM (inactive),–,–,–,–
COc1cccc2c1C(=O)c1c(O)c3c(c(O)c1C2=O)C[C@H](O)C[C@@H]3OC1CC(N)C(O)C(C)O1 (stereo partly specified),1.32 µM (inactive),3.04 µM (inactive),0.229 µM (active),–,–,1.06 µM (active),1.85 µM (inactive),1.97 µM (inactive),1.05 µM (active),1.57 µM (inactive),1.33 µM (inactive),1.87 µM (inactive),1.21 µM (inactive),1.58 µM (inactive),0.255 µM (active),0.811 µM (active),3.36 µM (inactive),1.49 µM (inactive),–
CC1(C)CCC2(C(=O)OC3OC(CO)C(O)C(O)C3O)CCC3(C)C(=CCC4C5(C)CCC(OC6OC(CO)C(O)C(O)C6O)C(C)(C)C5CCC43C)C2C1 (stereo unspecified),17.3 µM (inactive),9.44 µM (inactive),4.51 µM (inactive),14.8 µM (inactive),–,11.9 µM (inactive),> 25 µM (inactive),24.1 µM (inactive),15.8 µM (inactive),6.93 µM (inactive),5.4 µM (inactive),11.2 µM (inactive),6.4 µM (inactive),16.9 µM (inactive),8.67 µM (inactive),6.5 µM (inactive),8.32 µM (inactive),> 25 µM (inactive),4.41 µM (inactive)
COc1ccc(CCNC(=O)[C@H]2CCCC[C@@H]2CCO)cc1OC,> 100 µM (inactive),> 100 µM (inactive),–,> 100 µM (inactive),–,> 100 µM (inactive),> 100 µM (inactive),> 100 µM (inactive),> 100 µM (inactive),> 100 µM (inactive),> 100 µM (inactive),88.7 µM (inactive),> 100 µM (inactive),> 100 µM (inactive),> 100 µM (inactive),> 100 µM (inactive),> 100 µM (inactive),> 100 µM (inactive),> 100 µM (inactive)
CC(C)(C)C1CC[C@H](O)[C@H]([C@H](O)CC2CC(=O)N(c3ccccc3)C(=O)C2)C1 (stereo partly specified),> 100 µM (inactive),> 100 µM (inactive),> 100 µM (inactive),> 100 µM (inactive),> 100 µM (inactive),91.6 µM (inactive),> 100 µM (inactive),> 100 µM (inactive),> 100 µM (inactive),> 100 µM (inactive),> 100 µM (inactive),> 100 µM (inactive),–,> 100 µM (inactive),31.5 µM (inactive),> 100 µM (inactive),> 100 µM (inactive),> 100 µM (inactive),> 100 µM (inactive)
CCOc1ccc(NC(=O)/C(=N\N)C(C(=O)OC)c2nc3ccc(Cl)cc3nc2O)cc1 (stereo unspecified),> 100 µM (inactive),> 100 µM (inactive),> 100 µM (inactive),> 100 µM (inactive),–,> 100 µM (inactive),> 100 µM (inactive),> 100 µM (inactive),> 100 µM (inactive),> 100 µM (inactive),> 100 µM (inactive),> 100 µM (inactive),> 100 µM (inactive),> 100 µM (inactive),> 100 µM (inactive),> 100 µM (inactive),–,> 100 µM (inactive),> 100 µM (inactive)
